Common to all, as to assay type: cell-based
The target in assay [1] is T1, human PPAR γ 2 (Homo sapiens, UniProt P37231).
T1 construct: expressed in transfected cells; host or cells: human osteosarcoma MG63, transiently co-transfected with pSG5-hPPARg and the reporter pGV-P2-PPRE
T1 sequence (P37231 1-505): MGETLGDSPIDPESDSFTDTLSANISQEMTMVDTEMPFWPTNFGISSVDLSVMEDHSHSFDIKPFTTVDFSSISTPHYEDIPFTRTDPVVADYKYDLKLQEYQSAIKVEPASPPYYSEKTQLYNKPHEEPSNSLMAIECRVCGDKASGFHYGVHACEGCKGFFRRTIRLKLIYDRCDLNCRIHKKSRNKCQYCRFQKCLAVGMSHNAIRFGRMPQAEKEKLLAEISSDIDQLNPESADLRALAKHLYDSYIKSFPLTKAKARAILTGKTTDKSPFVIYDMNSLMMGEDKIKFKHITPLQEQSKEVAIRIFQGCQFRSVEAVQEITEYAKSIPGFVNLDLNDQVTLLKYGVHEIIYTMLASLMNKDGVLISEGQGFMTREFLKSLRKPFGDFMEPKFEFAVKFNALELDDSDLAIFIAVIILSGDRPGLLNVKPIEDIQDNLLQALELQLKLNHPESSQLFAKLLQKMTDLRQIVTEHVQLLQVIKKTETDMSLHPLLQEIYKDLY
Description: Inhibitory activity against PPAR γ transcription in the presence of agonist compound A, luciferase reporter. The following applies: in the presence of 10 nM compound A (agonist); MG63 cells transfected with pSG5-hPPARg and pGV-P2-PPRE; 24 hr. From the text:
The primers of the polymerase chain reaction (hereinafter “PCR”) were designed according to the gene sequence of human PPAR γ 2 (GenBANK accession No. D83233). […] For this, 2 kinds of polynucleotides shown in the sequence numbers 1 and 2 in the sequence table described below (hereinafter “S1” and “AS1”, respectively) were used as PCR primers.
In order to determine transcriptional activity via PPAR γ, 2 kinds of polynucleotides represented in sequence numbers 3 and 4 in the sequence table described below (hereinafter “S2” and “AS2”, respectively) were used for construction of the reporter plasmid having PPAR responsive element. The DNA fragment inserted was designed based on the gene sequence in the promoter region of rat acylCo-A oxidase (J. D. Tugwood, EMBO J., 11 (2), pp433-439 (1992)). For insertion of the DNA fragment into the reporter plasmid pGV-P2 (TOYO INK MFG CO., LTD), a NheI site and an XhoI site were added to the S2 and AS2, respectively.
Using cDNA library (Clontech) derived from human adipose tissue as a template, DNA oligomers S1 and AS1 that were synthesized in the procedure 1 as primers and Ex-Taq™ (TAKARA BIO INC.) as a thermostable DNA polymerase-PCR was carried out. […] Each cycle consisted of incubation at 94° C. for 1 min for denaturation of the template, then at 55° C. for 30 sec for annealing of DNA oligomers the PCR primer, and then at 72° C. for 30 sec for extension of the chain. The obtained DNA fragments with approximately 1500 base pairs were digested at the Bgl II sites and were inserted into BamHI sites of pSG5. Thus a human PPAR γ expression plasmid named pSG5-hPPAR g was obtained.
Vector pGV-P2 digestion products was prepared by digestion using the restriction enzymes, NheI and XhoI, and purified by 1.0% agarose-gel electrophoresis. The DNA oligomers, S2 and AS2 obtained in Procedure 2, were mixed together and were incubated in a hot bath at 94° C. for 1 min. After the annealing was partially broken, they were further incubated at 25° C. for 1 hr. Thus double-stranded DNA with annealing of S2 and AS2 was formed. Then, the terminus of the double-stranded DNA with annealing of S2 and AS2 was phosphorylated with DNA polynucleotide kinase (TOYOBO CO., LTD). After that, it was ligated to the pGV-P2 digestion products which were prepared previously using the NheI site and XhoI site. Thus the reporter plasmid pGV-P2-PPRE was obtained.
Using the plasmid obtained by the procedures 3 and 4, transformation of Escherichia coli HB-101 strain was carried out by conventional methods. HB-101 strain having the plasmid was incubated in L-broth medium (containing 10 g of trypton (Difco), 5 g of yeast extract (Difco), 5 g of sodium chloride in 1 L of aqueous solution) containing 100 μg/ml of ampicillin at 37° C. for 17 hrs. Then, each plasmid was purified by the alkaline-SDS method and employed for the gene transfection to mammalian cells. After mixing the pSG5-hPPARg, PGV-P2-PPRE and LipofectAMINE reagent (GIBCO BRL), the human osteosarcoma MG63 was transiently transfected. Then the cells were recovered. The recovered cells were plated on a 96-well plate so as to be 30,000 cells/well and cultured in a CO2 incubator (NAPCO) at 37° C. for 24 hr under the condition of 5% CO2, 95%-RH.
Ten (10) nM of the following compound A (although compound A is described here as a representative compound, the compound is not limited to compound A, if the compound exerts a PPAR r agonistic activity) and various concentrations of the test compound were added to culturing medium of the cells prepared in the Procedure 5.
(In a reporter assay the amount or activity of a reporter protein is the signal.)

The test system of assay [2] is Mouse preadipocyte strain 3T3-L1. Description: Inhibition of differentiation as an indication of acetic acid uptake. The following applies: Mus musculus, 3T3-L1, 0.1 μM test substance, control (0.01% dimethylsulfoxide) = 100%, read-out: Rate of Uptake (%) of [2-14C] acetic acid. The method, then:
As the basal medium, Dulbecco's modified Eagle's (DEM) medium (NISSUI PHARMACEUTICAL CO., LTD) was used. […] All culturing in the present Test Example was carried out in a CO2 incubator at 37° C. and 10% CO2 concentration.
The successively cultured 3T3-L1 cells were inoculated in a Biocoat Collagen I 96-well white/clear plate (Becton Dickinson and Co.) at a concentration of 4,900 cells/well, and were cultured in the basal medium containing added 10% (v/v) inactivated bovine fetal serum (FBS) for 10 days.
The medium was replaced with a differentiation-inducing medium in which inactivated FBS (final concentration: 5%), insulin (Sigma-Aldrich Japan K. K., final concentration: 10 μg/mL), isobutyl methyl xanthine (Aldrich K. K., final concentration: 0.5 mM) and dexamethazone (final concentration: 1 μM) were added so as to be at the final concentrations indicated in the parentheses. The cells were divided in the following 2 groups and were cultured for 4 days; 1) in the presence of 0.01% (v/v) dimethylsulfoxide, and 2) in the presence of 0.01% (v/v) dimethylsulfoxide in which was dissolved 1 mM of the test substance (final concentration of 0.1 μM). Then, the medium was further replaced with a maintenance medium in which inactivated […] and insulin were added to the base medium so as to be at final concentrations of 5% and 100 ng/mL, respectively, and the cells were cultured for 2 days.
The inhibitory activity of the test compound against cell differentiation was assayed by using uptake of [2-^14C] acetic acid into the cultured cells as an indicator. […] Then the cells were further incubated with the newly prepared medium for 1 hr. After washing the well with PBS (−), the cells were dried. To these wells, 100 μL/well of a scintillation cocktail (Hewlett-Packard Co., MICROSCINT-20 PACKARD) were added and their radioactivities were determined with a Packard TopCont microplate Scintillation Counter (Hewlett-Packard Co., PACKARD) and the uptake level of [2-^14C] acetic acid into the cultured cell was calculated.
On the basis of the calculated uptake level of [2-^14C] acetic acid into the cultured cells, the relative uptake level of [2-^14C] acetic acid in the group treated with the test compound was calculated against the uptake level of [2-^14C] acetic acid in the presence of 0.01% (v/v) dimethylsulfoxide solution described in 1) (100%).
Value=Uptake Level (cpm) of [2-^14C] Acetic Acid in the Presence of the Test Substance
Control=Uptake Level (cpm) of [2-^14C] Acetic Acid in the Control Group (0.01% dimethylsulfoxide)
Uptake Rate (%) of [2-^14C] Acetic Acid=100×[Value]/[Control]

Assay [3] has as its system Rat white adipocytes. Description: Inhibition of the differentiation of adipocytes (Oil Red O). As to conditions: Rattus norvegicus, Adipocyte, 120 h, 100 nM test compound; 5 days; Oil Red O ABS550; control = 100%, blank = 0%; Table 3; read-out: Rate of Differentiation (%). The essentials:
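Rat white preadipocytes, 5,000 cells/well, given differentiation medium with compound at 100 nM final (0.1% DMSO) for 5 days at 37 °C. Lipid stained with Oil Red O, eluted in DMSO, read at 550 nm; differentiation % relative to DMSO control (100%) and blank (0%).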

Counter-ions that a name gives are not always drawn.

The values that follow come from US20030134859A1 (SANKYO COMPANY, LIMITED, priority 2000, published 2003).

By IC50 is commonly meant the concentration needed to halve the response being measured.

Take `Cc1nccc(-c2cccc(NC(=O)c3cc([N+](=O)[O-])ccc3Cl)c2)n1` [Example 112, N-[3-(2-Methylpyrimidin-4-yl)phenyl]-(2-chloro-5-nitrophenyl)carboxamide]: in assay [1], the IC50 amounted to 0.014 µM. In assay [2], the activity at 0.1 µM worked out at 82.3%.
In the case of `CCS(=O)(=O)Nc1ccc(NC(=O)c2cc([N+](=O)[O-])ccc2Cl)cc1` [Example 129, N-(4-Ethanesulfonylaminophenyl)-(2-chloro-5-nitrophenyl)carboxamide], the IC50 in assay [1] was determined as 0.026 µM.
Consider `O=C(Nc1ccc(C(=O)N2CCOCC2)cc1)c1cc([N+](=O)[O-])ccc1Cl` [Example 158, N-[4-(Morpholin-4-ylcarbonyl)phenyl]-(2-chloro-5-nitrophenyl)carboxamide], for which, in assay [1], the IC50 turned out to be 0.082 µM.
Regarding `CCCCCCCCN(CCCCC)c1ccc(-c2ccc(NC(=O)c3cc([N+](=O)[O-])ccc3Cl)cc2)cc1` [Example 221, N-[4-[4-(N-Octyl-N-pentylamino)phenyl]phenyl]-(2-chloro-5-nitrophenyl)carboxamide mono-hydrochloride], in assay [1], the IC50 stood at 0.034 µM. For the same compound, the activity at 0.1 µM in assay [3] stood at 40.2%.
On the same counts, the results for `O=C(Nc1ccc(N2CCN(C(=O)c3cccnc3)CC2)cc1)c1cc([N+](=O)[O-])ccc1Cl` [Example 227, N-[4-[4-(Pyridin-3-ylcarbonyl)piperazin-1-yl]phenyl]-2-(chloro-5-nitrophenyl)carboxamide] are 0.081 µM and 39.7%.
On the same counts, the results for `CC(O)c1ccc(NC(=O)c2cc([N+](=O)[O-])ccc2Cl)cc1` (stereo not shown) [Example 238, N-[4-(1-Hydroxyethyl)phenyl]-(2-chloro-5-nitrophenyl)carboxamide] are 0.0093 µM and 64%.
For the compound `O=C(Nc1ccc(-c2ccc(NC(=S)Nc3cccnc3)cc2)cc1)c1cc([N+](=O)[O-])ccc1Cl` [Example 256, N-[4-[4-[(Pyridin-3-yl)aminothiocarbonylamino]phenyl]phenyl)-(2-chloro-5-nitrophenyl)carboxamide], the half-inhibitory concentration (IC50) in assay [1] was 0.012 µM. Moreover, the activity at 0.1 µM in assay [3] was determined as 38.2%.
The like results for `O=C(NCCc1ccc(NC(=O)c2cc([N+](=O)[O-])ccc2Cl)cc1)Nc1ccccc1` [Example 268, N-[4-(2-Phenylaminocarbonylaminoethyl)phenyl]-(2-chloro-5-nitrophenyl)carboxamide] were, in that order, 0.025 µM and 54.8%.
For the compound `O=C(Nc1ccc(CCNC(=S)Nc2ccccc2)cc1)c1cc([N+](=O)[O-])ccc1Cl` [Example 269, N-[4-(2-Phenylaminothiocarbonylaminoethyl)phenyl]-(2-chloro-5-nitrophenyl)carboxamide], the IC50 in assay [1] worked out at 0.03 µM. In assay [3], the activity at 0.1 µM amounted to 52.9%.
